Read-outs that look alike come from different tables or passages of the source.
Legend:
[1] = system: KRAS^G12C NSCLC; test: Phase 1/1b study: tumor response per RECIST 1.1 in KRAS G12C NSCLC; assay type: in vivo, human; settings: for patients who responded (response rate): all doses
Protocol: (§1) This Example describes the study design of a Phase 1/1b study of Compound A in patients with advanced KRAS^G12C solid tumors with the first patient dosed in September 2022. There are two components in this study: Part 1—Dose Escalation and Part 2—Dose Expansion (FIG. 1). In Part 1—Dose Escalation, an assessment of safety and tolerability are conducted, and the candidate recommended Phase 2 dose and schedule (RP2DS) are determined for further testing in the Dose Expansion Part. Part 2 of the study evaluates the safety and antitumor effects of the candidate RP2DS in KRAS^G12C-mutant solid tumors.
(§2) Subjects are assessed for response using Response Evaluation Criteria in Solid Tumors (version 1.1) (RECIST [v1.1]). All subjects with previous or current, known or suspected brain metastases must have a magnetic resonance imaging (MRI) of the brain (unless contraindicated) performed within 28 days prior to the first dose of Compound A (C1D1). Disease response for clinical management of subjects were assessed per RECIST (v1.1).
(§3) Patients with previously treated, advanced […] solid tumors received escalating doses of Compound A. Doses included 50 mg, 100 mg, and 200 mg once daily (QD) and 100 mg, 200 mg, 300 mg, and 400 mg twice daily (BID). Each cycle had 21 days, with efficacy assessed every 6 weeks. Additional patients were enrolled to backfill cohorts at dose levels that cleared dose-limiting toxicity evaluation to further characterize PK, safety, and anti-tumor activity of Compound A as described in Example 1.

[2] = Phase 1/1b study: Compound A pharmacokinetics in patients; assay type: in vivo, human; settings: for Tmax / half-life: human, oral, plasma; for Tmax: read-out: median Tmax
Protocol: as §1
Whole-blood samples were collected from all subjects to measure Compound A concentrations, circulating tumor deoxyribonucleic acid (ctDNA) and other biomarkers. Samples for pharmacodynamic assays collected in Cycle 1 and beyond. Paired pretreatment and on treatment fresh tumor samples collected from any subject if consent is obtained and at the discretion of the treating physician. Optional collection of pre-study treatment fresh biopsy should be performed prior to C1D1 dosing. An optional on-study treatment biopsy may be obtained with subject consent and at the discretion of the treating physician. The primary purpose of the optional on-study treatment biopsies is to assess pharmacodynamic markers and previously acquired pre-study treatment markers of resistance. Biopsy assessment with study intervention treatment over time may also help with better understanding of the shift in mutational profile with study treatment, as well as cellular clonality changes over time. Where tumor tissue allows, predictive biomarkers of response are explored.
Initially Compound A will be administered orally QD for a treatment cycle of 21 days. BID dosing be administered to subjects who are enrolled into Dose level 3 and higher dose levels during escalation as well. For subjects on BID dosing, the second dose of Compound A is administered approximately 10 to 12 hours after the first dose is administered.
as §3

[3] = system: KRAS^G12C CRC; test: Phase 1/1b study: tumor response per RECIST 1.1 in KRAS G12C CRC; assay type: in vivo, human
Protocol: as §1, §2, §3

[4] = system: xenograft models of human KRAS^G12C cancers; test: Xenograft / preclinical models of KRAS G12C cancers; assay type: in vivo
[5] = Phase 1/1b study: safety, treatment-related adverse events; assay type: in vivo, human
Protocol: as §1
Safety assessments and procedures were performed. Real-time safety monitoring is performed to ensure that the protocol-specified dose modification guidelines are followed. In addition, C1 safety and available PK and pharmacodynamic data reviewed and evaluated at each Compound A dose level/schedule to determine whether enrollment into the next higher dose-level cohort could proceed. A modified schedule evaluated in which Compound A may be administered more or less frequently than once daily (QD). The totality of the data from dose escalation cohorts is reviewed and one or more candidate RP2DS for expansion in Part 2 can be recommended.
as §3

[6] = system: human cancer cell lines harboring the KRAS^G12C mutation; test: Growth suppression and apoptosis in KRAS G12C cancer cell lines; assay type: cell-based; settings: multiple human cancer cell lines harboring KRAS^G12C
[7] = FIG. 3, CRC naive to KRAS^G12C(OFF) inhibitor, RECIST 1.1
[8] = 47 patients, all doses, as of Aug. 8, 2023

Tmax ([2]; 13 subjects, data as of May 15, 2023): 1 h
half-life ([2]; 13 subjects, data as of May 15, 2023, read-out: terminal half-life in the plasma): < 3 h
Tmax ([2]; patients, data as of Aug. 8, 2023): 1 h
half-life ([2]; patients, data as of Aug. 8, 2023, read-out: terminal half-life (converted)): 1.8 h
exposure ([2]; patients, escalating oral doses 50 mg QD to 400 mg BID): dose-dependent exposure
AUC ([2]; range of 50-200 mg): increased in a dose-dependent manner
Cmax ([2]; range of 50-200 mg): increased in a dose-dependent manner
mean accumulation ratio (C1D15 AUC vs C1D1 AUC) ([2]; repeated daily dosing): less than 2 ×
Structure (SMILES): CCn1c(-c2cccnc2[C@H](C)OC)c2c3cc(ccc31)N1CCO[C@@H](C[C@H](NC(=O)[C@H](C(C)C)N(C)C(=O)C3(F)CCN(C(=O)C#CC(C)(C)N(C)C)CC3)C(=O)N3CCC[C@H](N3)C(=O)OCC(C)(C)C2)C1 (atropisomer, axis not shown) [Compound A]
confirmed PR, number of patients ([1]; FIG. 2, NSCLC, RECIST 1.1): 5
unconfirmed PR, number of patients ([1]; FIG. 2, NSCLC, RECIST 1.1): 3
disease control rate ([1]; NSCLC, both sets of patients (G12C(OFF) inhibitor naive and pretreated)): 100%
patients who responded (response rate) ([1]; NSCLC, not previously treated with G12C(OFF) inhibitor, three of seven, as of Oct. 5, 2023): 43%
patients who responded (response rate) ([1]; NSCLC, previously treated with G12C(OFF) inhibitor, 5 of 10, as of Oct. 5, 2023): 50%
disease control rate ([3]; CRC, not previously treated with G12C(OFF) inhibitor): 80%
patients with partial response ([3]; CRC, not previously treated with G12C(OFF) inhibitor, 8 of 20, as of Oct. 5, 2023): 40%
confirmed PR, number of patients [3, 7]: 5
unconfirmed PR, number of patients [3, 7]: 3
response in preclinical models compared to adagrasib ([4]; compared to the KRAS^G12C(OFF) inhibitor adagrasib): superior response rate, deeper regressions and longer duration of response
anti-tumor activity in vivo ([4]; multiple xenograft models of human KRAS^G12C cancers): dose-dependent and durable tumor regressions
Gr3 TRAE QTc prolongation, number of patients ([5]; 200 mg BID): 1 patients
Gr3 TRAE QTc prolongation, number of patients ([5]; 300 mg): 1 patients
Gr3 TRAE QTc prolongation, number of patients ([5]; 400 mg BID): 3 patients
TRAE QTc prolongation, patients [5, 8]: 21%
TRAE diarrhea, patients [5, 8]: 30%
TRAE fatigue, patients [5, 8]: 15%
TRAE nausea, patients [5, 8]: 34%
TRAE vomiting, patients [5, 8]: 15%
Gr3 TRAE QTc prolongation, number of patients ([5]; all doses): 5 patients
treatment-emergent AE that led to treatment discontinuation ([5]; all doses): No patients
treatment-related Gr4 or 5 AE ([5]; all doses): No patients
treatment-related ≥Gr3 hepatotoxicity ([5]; all doses): No treatment-related ≥Gr3 hepatotoxicity was observed
patients with average QTc interval >501 ms ([5]; out of the 5 patients with Gr3 QTc prolongation): one
effect on cancer cell lines in vitro [6]: growth suppression and apoptosis

From US20250049810A1, “METHODS OF TREATING A RAS PROTEIN-RELATED DISEASE OR DISORDER” (Revolution Medicines, Inc., priority 2023, published 2025)
